Consider two molecules from patent US20230303494A1, “BENZYLAMINE DERIVATIVE, PREPARATION METHOD THEREFOR AND USE THEREOF” (ACADEMY OF MILITARY MEDICAL SCIENCES, priority 2020, published 2023).

pIC50, pKd: −log10 of the molar value. Where only a bound is given, the exact number is not on record here.

Assay [1] relates to colon cancer cell line MC38 (mouse PD-L1 knockout, human PD-L1 knockin). The assay can be described thus: Antitumor efficacy in vivo in PD-1 humanized mice inoculated with PD-L1 humanized MC38 cells. To be noted: 15 mg/kg intraperitoneal injection once per day for three weeks, compared with the control group. From the text: Based on the mechanism that PD-1/PD-L1 inhibitors activated the immune system to achieve anti-tumor effects by interfering with the interaction of PD-1/PD-L1, the animal models used in vivo efficacy experiments must be animals with healthy immune systems; in addition, the species differences of PD-1/PD-L1 between animals and humans are considered. Therefore, the in vivo antitumor pharmacodynamics evaluation model of the present invention adopted PD-1 humanized mice, and the inoculated tumors were PD-L1 humanized tumor cells. This evaluation model could more accurately reflect the in vivo efficacy of the compound.
24 PD-1 humanized mice (full name of strain: C57BL/6J-Pdcd1^em1(hPDCD1)/Smoc) about 6 weeks old were purchased from Shanghai Southern Model Animal Center, and placed in SPF grade animal breeding room for observation for 1 to 2 weeks. After the animals were adapted to the raising environment, the genetically engineered colon cancer cell line MC38 (mouse PD-L1 knockout, human PD-L1 knockin) was subcutaneously inoculated to the mice near the hind leg groin, and the inoculated cell volume was 1×10^6 cells per mouse. […] During the experiment, the tumor size and mouse body weight were measured and recorded, and the mice were sacrificed at the end of the experiment. […]

The next assay concerns Raw cells. In words: Cytotoxicity, Cell Titer-Glo, Raw cells. The settings on record: 24 hours incubation; read-out: Raw cells IC50 (cell death). It is filed as cell-based. As for the experimental part:
(§1) The raji (ATCC), raw (ATCC) and PBMCs cells were suspended in buffer (RPMI 1640 complete medium containing 10% FBS, SIGMA), respectively, and the cell density was counted. The cells were transferred to wells of a 96-well plate, ensuring that the cell density of each well was 1×10^4 cells/well, and incubated for 24 hours at 37° C., 5% CO2 with compounds at different concentrations (100 μM, 50 μM, 25 μM, 12.5 μM, 6.25 μM and 3.125 μM) and buffer control solution (0.2% DMSO). To each well, 100 μL of Cell Titer-Glo Luminescent Solution (Promega) was added and shaken for 10 minutes at room temperature, and then GloMax® Navigator System was used to measure the system […], and the cell death rate was calculated. Cell death rate (%)=(1−RLUcompound/RLUcontrol)×100%, and IC50 was determined from the inhibition curve.
For orientation: ATP-based viability assays read luminescence as a measure of living cells.

The next assay relates to Raji cells. The assay can be described thus: Cytotoxicity, Cell Titer-Glo, Raji cells. It is filed as cell-based. The settings on record: Homo sapiens, 24 hours incubation, read-out: Raji cells IC50 (cell death). As for the experimental part: as §1
Another assay deals with PD-1/PD-L1 interaction (Homo sapiens (Human), UniProt Q9NZQ7). The assay can be described thus: PD-1/PD-L1 Binding Assay kit (Cisbio), HTRF. The settings on record: 8-10 concentrations, read-out: IC50 of inhibition of PD-1/PD-L1 interaction. (In general: In TR-FRET formats the signal depends on donor and acceptor labels being close together.)
Sequence of PD-1/PD-L1 interaction (Q9NZQ7 19-238): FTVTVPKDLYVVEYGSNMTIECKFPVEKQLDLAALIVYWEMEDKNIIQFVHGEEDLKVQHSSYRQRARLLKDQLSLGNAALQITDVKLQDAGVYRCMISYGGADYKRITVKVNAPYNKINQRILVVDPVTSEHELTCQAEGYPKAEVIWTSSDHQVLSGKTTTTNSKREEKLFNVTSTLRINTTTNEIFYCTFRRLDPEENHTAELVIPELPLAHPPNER
In another assay the test system is PBMCs cells. In words: Cytotoxicity, Cell Titer-Glo, PBMCs cells. It is filed as cell-based. The settings on record: Homo sapiens, PBMC; 24 hours incubation; read-out: PBMCs cells IC50 (cell death). As for the experimental part:
as §1

For assay [2], the system named is Human peripheral blood mononuclear cells (PBMCs). The assay can be described thus: Promotion of IFN-γ secretion in PBMCs treated with anti-CD3/anti-CD28 and PDL1/FC fusion protein (ELISA). It is filed as cell-based. The settings on record: for IFN-γ / Increase rate of IFN-γ expression vs PDL1 treatment: hPD-L1 10.0 μg/mL, 72 h; for effect on promoting IFN-γ secretion at the cellular level: in words, better than that of BMS202. The protocol:
Human peripheral blood mononuclear cells (PBMCs) were isolated from 10-15 ml of whole blood of healthy volunteers using experimental human lymphocyte separation medium (TBD sciences). The cells were washed twice with normal saline and resuspended in buffer (RPMI 1640 complete medium containing 10% FBS, SIGMA) to count the cell density. The PBMCs were dispersed and placed in a 96-well plate, 1×10^5 cells and 50 μL of buffer per well. Anti-CD3 antibody (SIGMA) and anti-CD28 antibody (SIGMA) were mixed at a ratio of 1:1 to obtain an antibody mixture. The antibody mixture was added to the wells to ensure that the final concentration of antibody was 0.8 μg/mL. At the same time, PDL1/FC fusion protein (SINO BIOLOGICAL) was added to reach a final concentration of 10.0 μg/mL, and the compound to be tested was diluted with buffer and added to the wells to reach a final concentration of 0.1 μM or 1 μM. The mixed system was incubated at 37° C. and 5% CO2 for 72 h. The supernatant was collected, and the expression level of IFN-γ was measured by ELISA MAXTM Human IFN-γ Standard Kit (BioLegend), and the increase rate was calculated. Increase rate (%)=(expression amount of compound treatment−expression amount of PDL1 treatment)/expression amount of PDL1 treatment×100%
On the technique in general: In an ELISA, binding on a coated surface is turned into a signal by an enzyme label.

The target in the next assay is human PD-L1 (Homo sapiens (Human), UniProt Q9NZQ7). In words: Biofilm interferometry (BLI, OctetRED) binding to human PD-L1/AVI. To be noted: 1:1 binding model; for koff: read-out: Kdis. The protocol: In the experiment, the instrument OctectRED of Fortebio Company based on biofilm interferometry (BLI) technology was used to capture human PD-L1/AVI with SA chips. The concentration of antigen PD-L1/AVI was diluted to 10 μg/mL with running buffer (PBS+0.02% Tween-20+2% DMSO), and the loading time was 300 s; similarly, the analyte was also diluted to the corresponding concentrations (20 nM, 10 nM, 5 nM, 2.5 nM, 1.25 nM, 0.625 nM, 0.3125 nM) with running buffer in gradient manner, and a buffer blank control group was set at the same time. The binding time of human PD-L1/AVI to the analyte was 180 s, and the dissociation time was 300 s; the chip was regenerated with 10 mM glycine HCl, pH 1.7 solution and repeated 5-second pulse for 3 times. The data were fitted to a 1:1 binding model to determine the equilibrium dissociation constant KD.
Sequence of human PD-L1 (Q9NZQ7 19-290): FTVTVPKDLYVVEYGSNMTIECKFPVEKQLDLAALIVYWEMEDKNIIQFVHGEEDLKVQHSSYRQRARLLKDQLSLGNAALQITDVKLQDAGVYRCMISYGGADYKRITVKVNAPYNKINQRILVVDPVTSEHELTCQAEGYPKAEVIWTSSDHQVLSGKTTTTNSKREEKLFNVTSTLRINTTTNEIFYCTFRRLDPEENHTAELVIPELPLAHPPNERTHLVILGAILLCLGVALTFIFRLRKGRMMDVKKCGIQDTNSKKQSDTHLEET

For orientation: pKd means the negative decadic logarithm of the Kd, by convention in mol/L. The low end stands for a large Kd, the high end for a small Kd. In general, kon refers to the rate constant with which the complex forms. In the case of `Cc1cc(CN[C@H](CO)C(=O)O)c(OCc2cncc(C#N)c2)cc1NCc1cccc(-c2ccccc2)c1C` [Compound 5], the growth of tumors result in assay [1] is “significantly inhibit the growth of tumors”. The pIC50 with Raw cells was < 4.00; in the assay with Raji cells it was < 4.00; on PD-1/PD-L1 interaction, 7.92; in the assay on PBMCs cells, < 4.00. Further, the IFN-γ is 38300 pg/mL in assay [2] (compound 0.1 μM) and 42400 pg/mL in assay [2] (compound 1.0 μM). Also, the “Increase rate of IFN-γ expression vs PDL1 treatment” value in assay [2] (compound 0.1 μM) turned out to be 79.8%; in assay [2] (compound 1.0 μM) it was 99.1%. The “effect on promoting IFN-γ secretion at the cellular level” value in assay [2] is “significant effect on promoting IFN-γ secretion”. Besides, at human PD-L1, the pKd was 10.79. Further, the kon on human PD-L1 turned out to be 2.17e+06 M⁻¹ s⁻¹. On human PD-L1, the koff came to 3.53e-05 s⁻¹.
`Cc1c(CNc2ccc(CN[C@H](CO)C(=O)O)c(OCc3cncc(C#N)c3)c2)cccc1-c1ccccc1` [Compound 10]: the pIC50 in the assay on Raw cells was < 4.00; in the assay with Raji cells, < 4.00; at PD-1/PD-L1 interaction it was 7.42; with PBMCs cells, < 4.00. The values for the IFN-γ in assay [2] (compound 0.1 μM) and in assay [2] (compound 1.0 μM) were 37700 pg/mL and 41500 pg/mL, respectively. In addition, the figures for the “Increase rate of IFN-γ expression vs PDL1 treatment” value in assay [2] (compound 0.1 μM) and in assay [2] (compound 1.0 μM) were 77.0% and 94.8%, respectively. Moreover, the “effect on promoting IFN-γ secretion at the cellular level” value in assay [2] is recorded as “significant effect on promoting IFN-γ secretion”. For the same molecule, the pKd at human PD-L1 is 9.53. Moreover, on human PD-L1, the kon stood at 849000 M⁻¹ s⁻¹. Moreover, the koff at human PD-L1 was 0.000251 s⁻¹.
